Results published in patent US8053599B2, “Drug containing (2R)-2-propyloctanoic acid as the active ingredient” (Ono Pharmaceutical Co., Ltd., priority 2003, dated 2011).

How the values were obtained:
[1] = solubility and behaviour in water; format: physicochemical
Description: The present inventors have attempted to prepare a medicament comprising (2R)-2-propyloctanoic acid or a salt thereof in a high concentration, which is useful for the treatment of neurodegenerative diseases including cerebral infarction, and which can be formulated to an injection which can be conveniently administered to a patient, if necessary, by means of the dissolution or dilution operation. […] The inventors have conducted studies to solve these problems and have found as a result that (2R)-2-propyloctanoic acid can be dissolved in water in a high concentration by mixing it with a strong alkali such as sodium hydroxide. […] Moreover, the solution in a high concentration was difficult to be stored for a long period of time because of the appearance of insoluble allotrio within the solution under long-term storage in conventional glass containers. Thus, there are problems in using a drug which is sensitive to a change in the drug concentration or in the pH of the solution, leading to a change such as clouding. That is, there is in fact the risk of clouding of the drug, upon preparing an injection which can be administered to a patient, by direct manipulation of a person involved in medical services, for combined use with other agents, or during the action of intravascular administration to a patient. […]

[2] = confirmation test of micelle formation (fat staining with Sudan III, absorbance of supernatant); format: physicochemical
Description: The fat staining method includes, for example, a method of mixing a solution of a fat-soluble dye (for example, Sudan III, piacyanol chloride, Rhodamine 6G, etc.) with the solution under test, followed by centrifugation after a certain period of time, and measuring the absorbance of the supernatant which is inherent to the fat-soluble dye used. If the absorbance of the supernatant can be measured according to this test method, it implies that the fat-soluble dye is present within micelles, that is, micelles have been formed, and thus it is possible to determine that a micelle water dispersion liquid has been formed. It is also possible to define the critical concentration of micelle formation, that is, a critical micelle concentration (CMC), by means of such a test.
The critical micelle concentration cannot be exactly determined since it depends on the substance forming micelles, the type of co-existing ions and the concentration thereof, the ionic strength, and even on temperature. […]
Into a spitz made of glass, the Sudan III solution prepared in the above (2) (400 μL) was added, and ethanol was evaporated Each of the (2R)-2-propyloctanoic acid solutions of various concentrations prepared in the above (1) was added thereto, and the mixture was subjected to sonication and stirring. […] The absorbance of the supernatant was measured at a wavelength of 502 nm.

dog = assay: single intravenous administration toxicity using a dog; format: in vivo; conditions: dose of 100 mg/kg

Compound	pH and clouding of solution in water ([1]; dissolved in water)	critical micelle concentration ([2]; aqueous medicament comprising about 1 to about 5 equivalents of basic sodium ion based on 1 equivalent of (2R)-2-propyloctanoic acid, room temperature) [mg/mL]	concentration at which micelle formation occurred ([2]; aqueous solution with trisodium phosphate dodecahydrate, Sudan III, left at room temperature for 1 day, absorbance at 502 nm)	death after single intravenous administration (dog)	solubility in water ([1]; water)
CCCCCC[C@@H](CCC)C(=O)[O-].[Na+] [(2R)-2-propyloctanoic acid-sodium salt]	has a high pH and is susceptible to clouding under slight fluctuations of the pH	–	–	–	–
CCCCCC[C@@H](CCC)C(=O)O [(2R)-2-propyloctanoic acid]	–	20 to 25	about 20 mg/mL	did not result in death	insoluble and immiscible in water
